These results are taken from patent US9162991B2 (University of Ottawa, priority 2007, dated 2015).

Each structure is given as a SMILES string. Entries after “also recorded” stand apart in the source; their conditions may differ. Read-outs that look alike come from different tables or passages of the source.

This test addresses recombinant guinea pig liver TGase (Cavia cutleri (Guinea pig), UniProt P08587). Put plainly: biochemical. The format is biochemical. Here is the method:
ENZYME INHIBITION BY COMPOUNDS 14a-c, 14l, 15a, 15d-k, 15m-q, 30a, 30r, 30t, 37a and 38a: For enzymology studies of these compounds, recombinant guinea pig liver TGase was expressed in Escherichia coli and effectively purified (Gillet, S. M. F. G. et al J. N., Prot. Exp. & Purif. 2004, 33, 256).
The mode of inhibition was determined for the representative lead compound 14a through non-linear regression of initial rate data to the Michaelis-Menten equation (FIG. 1).
For the ensuing enzymatic tests, recombinant guinea pig liver TGase was expressed in E. Coli and effectively purified.
Kinetic runs were recorded on a Cary 100 BIO UV-Visible spectrophotometer at 405 nm and 25° C., in a buffer composed of 50 mM CaCl2, 50 μM EDTA and 0.1 M MOPS (pH 7.0). All aqueous solutions were prepared using de-ionized water purified from the Millipore BioCell system. […] Factor XIIIa activity was measured using a coupled-enzyme assay (Day, N.; Keillor, J. W. Anal. Biochem. 1999, 274, 141). Factor XIIIa, was added to a final concentration of 0.89 μg/mL to a pH 8.5 solution (0.1 M Tris-HCl, 5 mM CaCl2 and 10 mM DDT) of 0.5 mM β-NADH, 3.3 mM Na-acetyl-L-lysine methyl ester, 10 mM α-ketoglutaric acid sodium salt and 297 μg/mL glutamate dehydrogenase (GDH).

[1] abbreviates: IC50 (μM), Table 6, value in brackets.
Setting [2] is: IC50 (μM), class symbol, Table 6, Huisgen [3+2] cycloaddition products.
Setting [3] is: Table 1, substituent on the cinnamoyl aromatic group, read-out: IC50 (μM), class symbol.
[4] abbreviates: Table 1, value in brackets, read-out: IC50.

A word on the IC50: it is the concentration that inhibits the measured activity by half.

recombinant guinea pig liver TGase, sequence (P08587 whole entry): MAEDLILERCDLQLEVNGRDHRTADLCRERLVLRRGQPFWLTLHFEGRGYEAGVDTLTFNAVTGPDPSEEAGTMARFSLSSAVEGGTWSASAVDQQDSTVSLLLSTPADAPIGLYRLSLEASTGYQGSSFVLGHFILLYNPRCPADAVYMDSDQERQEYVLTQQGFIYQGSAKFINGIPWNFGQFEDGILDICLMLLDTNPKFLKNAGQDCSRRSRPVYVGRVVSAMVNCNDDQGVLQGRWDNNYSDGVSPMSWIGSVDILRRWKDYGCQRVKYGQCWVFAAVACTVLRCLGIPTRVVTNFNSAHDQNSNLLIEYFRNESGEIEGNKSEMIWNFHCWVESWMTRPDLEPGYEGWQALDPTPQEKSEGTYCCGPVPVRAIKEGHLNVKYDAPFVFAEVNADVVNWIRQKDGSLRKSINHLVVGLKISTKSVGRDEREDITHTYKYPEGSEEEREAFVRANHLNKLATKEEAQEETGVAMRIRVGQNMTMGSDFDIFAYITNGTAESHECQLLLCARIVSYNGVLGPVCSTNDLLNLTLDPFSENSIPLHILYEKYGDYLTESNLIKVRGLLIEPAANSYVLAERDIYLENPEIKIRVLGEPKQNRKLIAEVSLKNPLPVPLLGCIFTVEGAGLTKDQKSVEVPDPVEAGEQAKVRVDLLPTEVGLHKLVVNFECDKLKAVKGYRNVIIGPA

`O=C(/C=C/c1ccc([N+](=O)[O-])cc1)c1cn(Cc2ccccc2)nn1` [Compound 4a, (E)-1-(1-benzyl-1H-1,2,3-triazol-4-yl)-3-(4-nitrophenyl)prop-2-en-1-one]: the IC50 is less than 20 µM. In addition, the half-maximal inhibitory concentration (IC50) (read-out: IC50) was 4.3 µM.

On to `CCCCCCCCn1cc(C(=O)/C=C/c2ccc([N+](=O)[O-])cc2)nn1` [Compound 4b, (E)-3-(4-nitrophenyl)-1-(1-octyl-1H-1,2,3-triazol-4-yl)prop-2-en-1-one], for which the concentration for half-maximal inhibition (IC50) lay in the range of 20 to 50 µM. Moreover, the IC50 (read-out: IC50) was 28.5 µM.

Turning to `O=C(/C=C/c1ccc([N+](=O)[O-])cc1)c1cn(C2CCCC2)nn1` [Compound 4c, (E)-1-(1-cyclopentyl-1H-1,2,3-triazol-4-yl)-3-(4-nitrophenyl)prop-2-en-1-one], the half-inhibitory concentration (IC50) is more than 50 µM and the “TGase inhibitory activity (in words)” value was “relatively poor activity”. For the same molecule, the IC50 (read-out: IC50) was more than 100 µM.

As for `O=C(/C=C/c1ccc([N+](=O)[O-])cc1)c1cn(Cc2ccc([N+](=O)[O-])cc2)nn1` [Compound 4d, (E)-1-(1-(4-nitrobenzyl)-1H-1,2,3-triazol-4-yl)-3-(4-nitrophenyl)prop-2-en-1-one], the IC50 was less than 20 µM, the “TGase inhibitory activity (in words)” value is “most efficient inhibitors in the series” and the mode of inhibition entry was “competitive inhibition”. Further, where the note is “read-out: IC50”, the IC50 was found to be 2.1 µM.

Regarding `O=C(/C=C/c1ccc([N+](=O)[O-])cc1)c1cn(Cc2ccccn2)nn1` [Compound 4e, (E)-3-(4-nitrophenyl)-1-(1-((pyridin-2-yl)methyl)-1H-1,2,3-triazol-4-yl)prop-2-en-1-one], the IC50 was less than 20 µM and the “TGase inhibitory activity (in words)” value is reported as “lower potency”. Also, the IC50 (read-out: IC50) turned out to be 18 µM.

As to `O=C(/C=C/c1ccc([N+](=O)[O-])cc1)c1cn(CC2CCCCC2)nn1` [Compound 4f, (E)-1-(1-(cyclohexylmethyl)-1H-1,2,3-triazol-4-yl)-3-(4-nitrophenyl)prop-2-en-1-one], the concentration for half-maximal inhibition (IC50) was less than 20 µM and the “loss in potency (fold)” value was found to be 2.5 fold. Further, the IC50 (read-out: IC50) worked out at 11 µM.

Turning to `O=C(/C=C/c1ccc([N+](=O)[O-])cc1)c1cn(Cc2cccc([N+](=O)[O-])c2)nn1` [Compound 4g, (E)-1-(1-(3-nitrobenzyl)-1H-1,2,3-triazol-4-yl)-3-(4-nitrophenyl)prop-2-en-1-one], the “reduction in potency (fold)” value is on record as 4-7 fold. For the same molecule, under setting [1], the half-inhibitory concentration (IC50) was found to be 9.4 µM. In addition, the IC50 under setting [2] was less than 20 µM.

With `O=C(/C=C/c1ccc([N+](=O)[O-])cc1)c1cn(Cc2ccccc2[N+](=O)[O-])nn1` [Compound 4h, (E)-1-(1-(2-nitrobenzyl)-1H-1,2,3-triazol-4-yl)-3-(4-nitrophenyl)prop-2-en-1-one], the “reduction in potency (fold)” value is listed as 4-7 fold. Under setting [1], the IC50 was 10.7 µM. Also, the IC50 under setting [2] is less than 20 µM.

As for `O=C(/C=C/c1ccc([N+](=O)[O-])cc1)c1cn(Cc2c(F)c(F)c(F)c(F)c2F)nn1` [Compound 4i], the IC50 was more than 50 µM.

For the molecule `O=C(/C=C/c1ccc([N+](=O)[O-])cc1)c1cn(Cc2cc(C(F)(F)F)cc(C(F)(F)F)c2)nn1` [Compound 4j, (E)-1-(1-(3,5-bis(trifluoromethyl)benzyl)-1H-1,2,3-triazol-4-yl)-3-(4-nitrophenyl)prop-2-en-1-one], the “TGase inhibitory activity (in words)” value was “activity was lost”. Besides, the 50% inhibitory concentration (IC50) (Table 6, Huisgen [3+2] cycloaddition products, read-out: IC50 (μM), class symbol) is more than 50 µM. Also, the half-inhibitory concentration (IC50) (Table 6, value in brackets, read-out: IC50) is more than 100 µM.

For `CC(c1ccccc1)n1cc(C(=O)/C=C/c2ccc([N+](=O)[O-])cc2)nn1` (stereo not drawn) [Compound 4k, (E)-3-(4-nitrophenyl)-1-(1-(1-phenylethyl)-1H-1,2,3-triazol-4-yl)prop-2-en-1-one], the IC50 was less than 20 µM and the “loss in potency (fold)” value is 4 fold. Besides, the concentration for half-maximal inhibition (IC50) (read-out: IC50) is 17 µM.

Regarding `O=C(/C=C/c1ccc([N+](=O)[O-])cc1)c1cn(C(c2ccccc2)c2ccccc2)nn1` [Compound 4l, (E)-1-(1-benzhydryl-1H-1,2,3-triazol-4-yl)-3-(4-nitrophenyl)prop-2-en-1-one], the IC50 was more than 50 µM and the “TGase inhibitory activity (in words)” value is recorded as “relatively poor activity”. The half-maximal inhibitory concentration (IC50) (read-out: IC50) was more than 100 µM.

Turning to `O=C(/C=C/c1ccc([N+](=O)[O-])cc1)c1cn(Cc2cnn[nH]2)nn1` [Compound 4m, (E)-1-(1-((3H-1,2,3-triazol-4-yl)methyl)-1H-1,2,3-triazol-4-yl)-3-(4-nitrophenyl)prop-2-en-1-one], the 50% inhibitory concentration (IC50) was in the range of 20 to 50 µM and the “TGase inhibitory activity (in words)” value was “relatively higher IC50 value; also recorded: high IC50”. The IC50 (read-out: IC50) stood at 33 µM.

Take `COc1ccc(Cn2cc(C(=O)/C=C/c3ccc([N+](=O)[O-])cc3)nn2)cc1` [Compound 4n, (E)-1-(1-(4-methoxybenzyl)-1H-1,2,3-triazol-4-yl)-3-(4-nitrophenyl)prop-2-en-1-one]: the IC50 is less than 20 µM. Moreover, for the setting “read-out: IC50”, the 50% inhibitory concentration (IC50) is 14 µM.

As for `O=C(/C=C/c1ccc([N+](=O)[O-])cc1)c1c[nH]nn1` [Compound 4o, (E)-3-(4-nitrophenyl)-1-(1H-1,2,3-triazol-4-yl)prop-2-en-1-one], the half-inhibitory concentration (IC50) was 20 to 50 µM and the “TGase inhibitory activity (in words)” value is reported as “relatively high IC50”. Moreover, the IC50 (read-out: IC50) amounted to 45 µM.

Consider `O=C(C=Cc1ccc([N+](=O)[O-])cc1)On1nnc2ccccc21` [Compound 14a, p-Nitrocinnamoyl oxybenzotriazolyl amide], for which the “TGase inhibitory activity (in words)” value is “Inhibitory activity was observed”. Under setting [3], the 50% inhibitory concentration (IC50) fell in the range of 20 to 50 µM. Further, the half-inhibitory concentration (IC50) under setting [4] turned out to be 43 µM. Besides, the IC50 (Table 3, influence of the acylated moiety, read-out: IC50 (μM), class symbol) is 20 to 50 µM. For the same molecule, the mode of inhibition entry (versus acyl-donor substrate) is “competitive inhibition; also recorded: competitive inhibitor”.

For `O=C(C=Cc1cccc([N+](=O)[O-])c1)On1nnc2ccccc21` [Compound 14b, m-Nitrocinnamoyl oxybenzotriazolyl amide], the IC50 runs as follows: under setting [3], 20 to 50 µM; under setting [4], 24 µM.

Take `O=C(C=Cc1ccccc1[N+](=O)[O-])On1nnc2ccccc21` [Compound 14c, o-Nitrocinnamoyl oxybenzotriazolyl amide]: the IC50 is, setting by setting: under setting [3], more than 50 µM; under setting [4], more than 100 µM.

`O=C(C=Cc1cccc(Cl)c1)On1nnc2ccccc21` [Compound 14l, m-Chlorocinnamoyl oxybenzotriazolyl amide]: the IC50 is 20 to 50 µM under setting [3], 41 µM under setting [4] and 41 µM (read-out: IC50).

Turning to `COc1ccc(/C=C/C(=O)n2nnc3ccccc32)cc1` [Compound 15d, p-Methoxycinnamoyl benzotriazolyl amide], the IC50 is, setting by setting: under setting [3], more than 50 µM; under setting [4], more than 100 µM.

Take `COc1cccc(/C=C/C(=O)n2nnc3ccccc32)c1` [Compound 15e, m-Methoxycinnamoyl benzotriazolyl amide]: the IC50 is, setting by setting: under setting [3], more than 50 µM; under setting [4], more than 100 µM.

In the case of `COc1ccccc1/C=C/C(=O)n1nnc2ccccc21` [Compound 15f, o-Methoxycinnamoyl benzotriazolyl amide], the concentration for half-maximal inhibition (IC50) is more than 50 µM under setting [3] and more than 100 µM under setting [4].

Consider `Cc1ccc(/C=C/C(=O)n2nnc3ccccc32)cc1` [Compound 15g, p-Methylcinnamoyl benzotriazolyl amide], for which the half-maximal inhibitory concentration (IC50) by setting is: under setting [3], more than 50 µM; under setting [4], more than 100 µM.

`Cc1cccc(/C=C/C(=O)n2nnc3ccccc32)c1` [Compound 15h, m-Methylcinnamoyl benzotriazolyl amide]: the half-inhibitory concentration (IC50) is more than 50 µM under setting [3] and more than 100 µM under setting [4].

With `Cc1ccccc1/C=C/C(=O)n1nnc2ccccc21` [Compound 15i, o-Methylcinnamoyl benzotriazolyl amide], the half-inhibitory concentration (IC50) was more than 50 µM under setting [3] and more than 100 µM under setting [4].

In the case of `O=C(/C=C/c1ccccc1)n1nnc2ccccc21` [Compound 15j, Cinnamoyl benzotriazolyl amide], the concentration for half-maximal inhibition (IC50) under setting [3] is more than 50 µM and the IC50 under setting [4] is more than 100 µM.

With `O=C(/C=C/c1ccc(Cl)cc1)n1nnc2ccccc21` [Compound 15k, p-Chlorocinnamoyl benzotriazolyl amide], the concentration for half-maximal inhibition (IC50) was more than 50 µM under setting [3] and more than 100 µM under setting [4].

With `O=C(/C=C/c1ccccc1Cl)n1nnc2ccccc21` [Compound 15m, o-Chlorocinnamoyl benzotriazolyl amide], the IC50 is more than 50 µM under setting [3] and more than 100 µM under setting [4].

Take `CC(C)(C)OC(=O)Nc1ccc(C=CC(=O)n2nnc3ccccc32)cc1` [Compound 15n, p-(tert-Butoxycarbonylamino)cinnamoyl benzotriazolyl amide]: the 50% inhibitory concentration (IC50) under setting [3] is less than 20 µM and the 50% inhibitory concentration (IC50) under setting [4] is 18 µM.

On to `CC(C)(C)OC(=O)Nc1cccc(C=CC(=O)n2nnc3ccccc32)c1` [Compound 15o, m-(tert-Butoxycarbonylamino)cinnamoyl benzotriazolyl amide], for which the concentration for half-maximal inhibition (IC50) is, setting by setting: under setting [3], 20 to 50 µM; under setting [4], 39 µM.
